Columns and labels:
Male Kunming mice [1] = experiment: mouse forced swimming test; format: in vivo; details: for effect on immobility time compared with normal saline control: 15 mg/kg
Protocol: (§1) Experimental method: the experiment was made using the mouse forced swimming test and tail suspension test according to the experimental methodology of pharmacology (see the description of these methods in Xu Shuyun et al. Experimental Methodology of Pharmacology. People's Medical Publishing House, 2005: 807-808) by subacute treatment (administered twice within 24 hours) and by intraperitoneal administration. The solvent control and the positive control with fluoxetine and imipramine were established in the experiment.
(§2) Administration method: totally 6 dosage groups of sarcostin were established: 0.05, 0.1, 0.25, 0.5, 1, 5 mg/kg. Male Kunming mice were randomly grouped in the experiment. All test samples were intraperitoneally administered at a volumetric dose of 0.1 mL/10 g. Administration frequency and time: test was made twice respectively in 0 and 19 h, and test was made in 24 h after the first administration. Positive control: 15 mg/kg of fluoxetine and 15 mg/kg of imipramine.

Male Kunming mice [2] = experiment: mouse tail suspension test; format: in vivo
Protocol: as §1, §2

male ICR mice = experiment: preliminary acute toxicity test; format: in vivo, mouse; details: for toxic reaction: four times in 24 h, observed 7 days; for toxic and side reaction: preliminary acute toxicity test, no doses given
Protocol: (§3) Experimental method: 20 clean male ICR mice were randomly divided into two groups, and fasted for 12 h before the experiment. Sarcostin was administered many times based on its maximum dissolution amount and maximum administration volume. For the oral administration group, sarcostin was prepared with ultra-pure water (maximum dissolution amount: 1.5 mg/mL), and was intragastrically administered four times in 24 hours with 0.3 ml/10 g body weight each time, and with the total dosage of 180 mg/kg. For the intraperitoneal injection group, sarcostin was prepared with normal saline (maximum dissolution amount: 1.0 mg/mL), and was intraperitoneally injected four times in 24 hours with 0.3 ml/10 g body weight each time, and with the total dosage of 120 mg/kg.

[3] = maximum dissolution amount; format: physicochemical
Protocol: as §3

mice = experiment: antidepressant activity test of compounds 3, 23 and derivatives; format: in vivo, mouse; details: no doses given
Protocol: The solvent control and the positive control with fluoxetine and imipramine were established in the experiment.
as §2, with “administration.” for “administration. Positive control: 15 mg/kg of fluoxetine and 15 mg/kg of imipramine.”

[4] = 15 mg/kg i.p., twice within 24 h (0 and 19 h), test at 24 h
[5] = tail suspension test, 15 mg/kg i.p., twice within 24 h (0 and 19 h), test at 24 h

CNCCC(Oc1ccc(C(F)(F)F)cc1)c1ccccc1 (stereo not drawn) [Fluoxetine, reference compound]
effect on immobility time compared with normal saline control (Male Kunming mice [1]): significantly reduced the immobility time
Immobility time (Average value, s) (Male Kunming mice [1]; [4]): 79.00 s
effect on immobility time compared with normal saline group (Male Kunming mice [2]; tail suspension test, 15 mg/kg): significantly reduced the immobility time
Immobility time (Average value, s) (Male Kunming mice [2]; [5]): 132.45 s

CN(C)CCCN1c2ccccc2CCc2ccccc21 [Imipramine, reference compound]
effect on immobility time compared with normal saline control (Male Kunming mice [1]): significantly reduced the immobility time
Immobility time (Average value, s) (Male Kunming mice [1]; [4]): 92.05 s
effect on immobility time compared with normal saline group (Male Kunming mice [2]; tail suspension test, 15 mg/kg): significantly reduced the immobility time
Immobility time (Average value, s) (Male Kunming mice [2]; [5]): 155.37 s

C[C@H](O)[C@]1(O)CC[C@@]2(O)[C@]1(C)[C@H](O)C[C@@H]1[C@@]3(C)CC[C@H](O)CC3=CC[C@]12O [Sarcostin]
preferred dose (Male Kunming mice [1]): 0.1 mg/kg
Immobility time (Average value, s) (Male Kunming mice [1]; 0.05 mg/kg i.p., twice within 24 h): 85.13 s
Immobility time (Average value, s) (Male Kunming mice [1]; 0.1 mg/kg i.p., twice within 24 h): 83.63 s
Immobility time (Average value, s) (Male Kunming mice [1]; 0.25 mg/kg i.p., twice within 24 h): 112.63 s
Immobility time (Average value, s) (Male Kunming mice [1]; 0.5 mg/kg i.p., twice within 24 h): 118.19 s
Immobility time (Average value, s) (Male Kunming mice [1]; 1 mg/kg i.p., twice within 24 h): 125.44 s
Immobility time (Average value, s) (Male Kunming mice [1]; 5 mg/kg i.p., twice within 24 h): 91.50 s
antidepressant activity compared with normal saline control (Male Kunming mice [1]; 0.05 to 0.5 mg/kg): significant antidepressant activities
preferred dosage (Male Kunming mice [2]; tail suspension test): 0.5 mg/kg
Immobility time (Average value, s) (Male Kunming mice [2]; tail suspension test, 0.05 mg/kg i.p., twice within 24 h): 177.94 s
Immobility time (Average value, s) (Male Kunming mice [2]; tail suspension test, 0.1 mg/kg i.p., twice within 24 h): 167.77 s
Immobility time (Average value, s) (Male Kunming mice [2]; tail suspension test, 0.25 mg/kg i.p., twice within 24 h): 207.60 s
Immobility time (Average value, s) (Male Kunming mice [2]; tail suspension test, 0.5 mg/kg i.p., twice within 24 h): 166.46 s
Immobility time (Average value, s) (Male Kunming mice [2]; tail suspension test, 1 mg/kg i.p., twice within 24 h): 200.99 s
Immobility time (Average value, s) (Male Kunming mice [2]; tail suspension test, 5 mg/kg i.p., twice within 24 h): 177.05 s
antidepressant trend (Male Kunming mice [2]; tail suspension test, 0.1, 0.5 and 0.05 mg/kg groups): showed antidepressant trend
effect on immobility time compared with normal saline group (Male Kunming mice [2]; tail suspension test, all sarcostin doses): did not significantly reduce the immobility time
toxic reaction (male ICR mice; intragastric, total 180 mg/kg): without obvious toxic and side reaction
toxic reaction (male ICR mice; intraperitoneal injection, total 120 mg/kg): without obvious toxic and side reaction
maximum dissolution amount ([3]; normal saline): 1.0 mg/mL
maximum dissolution amount ([3]; ultra-pure water): 1.5 mg/mL

CC=C(C)C(=O)OC(C)C1(O)CCC2(O)C3(O)CC=C4CC(O)CCC4(C)C3CC(OC(=O)C(C)=CC)C12C (stereo not drawn) [compound 3, 12-O-tigloyl-20-O-tigloylsarcostin]
toxic and side reaction (male ICR mice): no significant toxic and side reaction
antidepressant activity (mice): significant antidepressant activities

CNc1ccccc1C(=O)OC1CC2C3(C)CCC(O)CC3=CCC2(O)C2(O)CCC(O)(C(C)=O)C12C (stereo not drawn) [compound 23, 12-O-(N-methyl) anthraniloyl deacetylmetaplexigenin]
toxic and side reaction (male ICR mice): no significant toxic and side reaction
antidepressant activity (mice): significant antidepressant activities

Reference: patent US10391104B2, “Application of antidepressant compound in preparation of antidepressant drugs and antidepressant health-care foods” (ZHEJIANG ACADEMY OF MEDICAL SCIENCES, priority 2015, dated 2019)
